From patent publication US12698306B2, “Bile acid-GCPII inhibitor conjugates to treat inflammatory diseases, including inflammatory bowel disease (IBD)” (The Johns Hopkins University, priority 2020, dated 2026)

Assays:
[1] = tested on: dextran sodium sulfate (DSS)-induced colitis; assay: Dextran sodium sulfate (DSS)-induced colitis model, disease activity index (DAI); assay type: in vivo, mice (C57Bl/6NHsd); conditions: for anti-IBD activity: disease activity index (DAI): once daily oral
Experimental: (§1) Colitis was induced using either 2.5% DSS (FIG. 1A, FIG. 1B, and FIG. 1C) or 4.0% DSS (FIG. 1D, FIG. 1E, FIG. 1F, FIG. 1G, and FIG. 1H) resulting in the characteristic development of diarrhea, rectal bleeding and body weight loss. These parameters were evaluated daily, scored and summated to compute a disease activity index (DAI). Mice received once daily oral treatment with test article or vehicle beginning on Study Day 0 and continuing through Study Day 7. […] All data depicted as mean+/−SEM. 2-way ANOVA, *p<0.05, **p<0.01, ***p<0.001;
as §1, with “using” for “using either 2.5% DSS (FIG. 1A, FIG. 1B, and FIG. 1C) or”, “DSS” for “DSS (FIG. 1D, FIG. 1E, FIG. 1F, FIG. 1G, and FIG. 1H)”, “6.” for “7.”
(§2) Six-week old male C57Bl/6NHsd mice were challenged with 4.0% DSS in drinking water from Study Day 0-5 followed by exposure to freshwater, inducing severe acute colitis. Oral (S)-LTP592 was administered once daily beginning on study day 0 at 1 mg/kg, 10 mg/kg and 100 mg/kg 2-PMPA molar equivalent doses. (FIG. 4A) 100 mg/kg eq. […] (S)-LTP592, while GCPII was only 40% inhibited at the non-efficacious dose of 1 mg/kg eq. (n=8/group; **p<0.01 2-tailed t-test). (FIG. 4C) Strikingly, 100 mg/kg eq. […] (FIG. 4D, FIG. 4E, and FIG. 4F) Efficacy of 100 mg/kg eq. (S)-LTP592 in the DSS-colitis model was driven by improvements in (FIG. 4C) stool score and (FIG. 4D) bleeding score (n=15/group; ***p<0.001, *p<0.05 2-way ANOVA);
(§3) Six-week old male C57Bl/6NHsd mice were challenged with 4.0% DSS in drinking water from study day 0-6 followed by exposure to freshwater. Oral (S)-LTP592 was administered once daily beginning on study day 0 at 100 mg/kg 2-PMPA molar equivalent doses. (FIG. 5A, FIG. 5B, and FIG. 5C) 100 mg/kg eq. […] (FIG. 5D, FIG. 5E, FIG. 5F, and FIG. 5G) A subset of mice (n=8/group) were euthanized on study day 5, prior to fulminant colitis. Their colons were harvested and processed for flow cytometry. […] All DSS-induced changes in myeloid inflammatory cell populations were attenuated by (S)-IBD3540 treatment (n=8-9/group, **p<0.01, *p<0.05, 2-tailed t-test).
Six- to eight-week-old male C57BM6NHsd mice were acquired from Harlan Laboratories/Envigo (Indianapolis, IN). Animals were housed in the Johns Hopkins animal facility under controlled temperature (25° C.) and photoperiod (12-hour-light/12-hour-dark cycle) with access to standard diet and water (or specified DSS-containing drinking water) ad libitum. All animal studies were approved by the Animal Care and Use Committee of Johns Hopkins University, Baltimore, MD and adhered to all of the applicable institutional and governmental guidelines for the humane treatment of laboratory animals. Mice were housed 4-5 per cage and allowed to acclimate to their environment for at least 5 days before inclusion in experiments. Mice (n=5-30/group) were randomized by body weight into equivalent experimental groups: (a) DSS with vehicle or (b) DSS with test article. Acute colitis was induced by administration of 2.5%-4.0% (w/v) DSS (MW 40,000-50,000; Affymetrix Santa Clara, CA) in the drinking water for 5 days, followed by exposure to freshwater for two days. Daily oral (PO) dosing of vehicle or test article was initiated on study day 0 and was continued until sacrifice on study day 7. […]

[2] = tested on: myeloid inflammatory cell populations in colon; assay: Flow cytometry of colonic lamina propria mononuclear cells in DSS colitis; assay type: in vivo, mice; conditions: 4.0% DSS, 100 mg/kg eq. oral, study day 5
Experimental: as §3
On DSS study day 5, a subset of mice (n=8-9/group) were euthanized and colons were processed for flow cytometry. Specifically, the distal 3 cm of colon was separated, mesenteric fat dissected away and intestinal contents removed. Then colon was transected longitudinally, washed with PBS, and minced thoroughly. Minced colon tissues were transferred into 5 ml HBSS with 10 mM HEPES containing 5% FBS and 0.2 mg/ml collagenase D (Sigma). Tissues were digested at 37° C. for 20 min with constant agitation (250 r.p.m.), then vigorously vortexed for 20 s. The resulting cell suspension containing LPMCs was filtered through a 70-μm nylon cell strainer and washed with 10 ml PBS. […]

[3] = molecular target: recombinant human GCPII (Homo sapiens, UniProt Q04609); assay: GCPII inhibition, radiosubstrate based assay; assay type: biochemical; conditions: GCPII IC50 ratio, (S)- vs (R)-enantiomer
Experimental: FIG. 3A, FIG. 3B, FIG. 3C, and FIG. 3D show IC50 values for selected bile acid GCPII inhibitor conjugates. IC50s were determined for selected inhibitors using a previously described radiosubstrate based assay employing recombinant human GCPII. Rojas et al., 2002.
Glutamate Carboxypeptidase II (GCPII) is a metallopeptidase that catalyzes the hydrolysis of N-acetylated aspartate-glutamate (NAAG) to N-acetyl aspartate (NAA) and glutamate and cleaves terminal glutamate moieties sequentially from folate polyglutamate (Ristau et al., 2013; Mesters et al, 2006; Slusher et al, 2013). In certain embodiments, the presently disclosed compounds of formula (I) are GCPII inhibitors. As used herein, a GCPII inhibitor is a molecule that decreases or inhibits the activity of GCPII. The modulation of the activity of GCPII may be detected by use of an assay for the intrinsic N-acetylated alpha-linked acidic dipeptidase (AALADase) activity of GCPII (Tang et al, 2003; Robinson et al 1987: Lupoid et al., 2002; U.S. Patent App. Pub. No. 20110064657). Inhibition curves may be determined using semi-log plots and IC50 values determined at the concentration at which enzyme activity was inhibited by 50%.

[4] = molecular target: T1, GCPII (Mus musculus, UniProt O35409); assay: GCPII enzymatic activity in murine colon tissue (radioenzymatic assay); assay type: in vivo, mice; conditions: colon collected 4-hour post dose on study day 6
T1 construct: from tissue; host or cells: mouse proximal colon
Experimental: as §2
A 5-mm length location-matched segment of proximal colon was harvested and flash-frozen following euthanasia on study day 6 of DSS-induced colitis, 4-hours after the final dose with vehicle or compound. Glutamate carboxypeptidase activity was measured using a radioenzymatic assay that was optimized and described previously. Rojas et al., 2002; Robinson et al., 1987.

[5] = 2.5% or 4.0% DSS, Study Day 0-7, 10 to 100 mg/kg 2-PMPA molar equivalent dose, DAI on Study Days 6 and 7
[6] = 4.0% DSS, 100 mg/kg eq. oral, study day 6
[7] = 4.0% DSS, Study Day 0-6, DAI on Study Days 4 through 6

T1 sequence (O35409 whole entry): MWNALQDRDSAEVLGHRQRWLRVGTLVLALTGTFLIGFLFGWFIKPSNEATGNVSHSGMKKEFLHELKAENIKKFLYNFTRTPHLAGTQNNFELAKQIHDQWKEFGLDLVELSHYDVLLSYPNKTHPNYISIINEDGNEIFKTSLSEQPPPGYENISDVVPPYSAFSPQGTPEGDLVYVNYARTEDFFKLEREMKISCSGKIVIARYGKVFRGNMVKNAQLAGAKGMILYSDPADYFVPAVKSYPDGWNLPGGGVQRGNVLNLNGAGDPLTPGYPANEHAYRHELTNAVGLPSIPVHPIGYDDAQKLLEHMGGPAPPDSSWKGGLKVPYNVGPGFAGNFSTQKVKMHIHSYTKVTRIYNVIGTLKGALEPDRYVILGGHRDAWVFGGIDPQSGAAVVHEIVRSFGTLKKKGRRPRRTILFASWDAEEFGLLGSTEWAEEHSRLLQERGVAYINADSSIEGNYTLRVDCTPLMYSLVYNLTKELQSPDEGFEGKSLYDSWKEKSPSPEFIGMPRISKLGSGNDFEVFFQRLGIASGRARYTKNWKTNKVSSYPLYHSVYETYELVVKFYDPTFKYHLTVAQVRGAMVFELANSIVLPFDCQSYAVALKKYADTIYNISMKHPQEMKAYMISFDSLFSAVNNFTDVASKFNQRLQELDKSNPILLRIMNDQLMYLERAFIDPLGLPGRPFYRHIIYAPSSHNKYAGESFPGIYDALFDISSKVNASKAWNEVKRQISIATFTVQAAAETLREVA
Sequence of recombinant human GCPII (Q04609 whole entry): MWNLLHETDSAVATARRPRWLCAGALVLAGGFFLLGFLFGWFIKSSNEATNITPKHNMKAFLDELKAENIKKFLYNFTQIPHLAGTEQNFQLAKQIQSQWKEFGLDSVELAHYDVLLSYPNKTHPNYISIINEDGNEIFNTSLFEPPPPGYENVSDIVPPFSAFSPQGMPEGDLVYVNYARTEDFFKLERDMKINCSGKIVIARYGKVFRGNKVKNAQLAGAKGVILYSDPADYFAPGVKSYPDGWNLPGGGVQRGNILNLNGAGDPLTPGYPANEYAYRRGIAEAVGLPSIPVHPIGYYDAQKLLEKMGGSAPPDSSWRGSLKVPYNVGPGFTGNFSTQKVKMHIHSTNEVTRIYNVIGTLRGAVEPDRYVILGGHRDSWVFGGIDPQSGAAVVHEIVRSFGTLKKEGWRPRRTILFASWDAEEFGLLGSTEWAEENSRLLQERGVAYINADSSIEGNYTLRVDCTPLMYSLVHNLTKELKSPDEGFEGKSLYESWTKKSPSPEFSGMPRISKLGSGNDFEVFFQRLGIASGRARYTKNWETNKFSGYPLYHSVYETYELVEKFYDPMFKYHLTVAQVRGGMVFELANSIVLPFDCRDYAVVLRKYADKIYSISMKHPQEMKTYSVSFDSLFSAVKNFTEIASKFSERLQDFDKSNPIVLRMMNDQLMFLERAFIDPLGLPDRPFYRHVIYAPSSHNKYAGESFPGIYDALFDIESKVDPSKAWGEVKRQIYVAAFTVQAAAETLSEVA

In the case of `C[C@H](CCC(=O)OCOC(=O)CCC(CP(=O)(O)O)C(=O)O)C1CCC2C3CC[C@@H]4C[C@H](O)CC[C@]4(C)C3CC[C@@]21C` (mixture of isomers) [LTP582, 5-((((4R)-4-((3R,10S,13R)-3-Hydroxy-10,13-dimethylhexadecahydro-1H-cyclopenta[a]phenanthren-17-yl)pentanoyl)oxy)methoxy)-5-oxo-2-(phosphonomethyl)pentanoic acid], the “anti-IBD activity: disease activity index (DAI)” value [1, 5] is reported as “inactive”.

With `C[C@H](CCC(=O)OCOC(=O)CCC(CP(=O)(O)O)C(=O)O)C1CCC2C3C(C[C@H](O)[C@@]21C)[C@@]1(C)CC[C@@H](O)C[C@H]1C[C@H]3O` (mixture of isomers) [LTP588, 5-Oxo-2-(phosphonomethyl)-5-((((4R)-4-((3R,7R,10S,12S,13R)-3,7,12-trihydroxy-10,13-dimethylhexadecahydro-1H-cyclopenta[a]phenanthren-17-yl)pentanoyl)oxy)methoxy) pentanoic acid] the “anti-IBD activity: disease activity index (DAI)” value [1, 5] was “inactive”.

With `C[C@H](CCC(=O)OCOC(=O)CC[C@H](CP(=O)(O)O)C(=O)O)C1CCC2C3CC[C@@H]4C[C@H](O)CC[C@]4(C)C3C[C@H](O)[C@@]21C` (stereo partly drawn) [(S)-LTP592] the “DSS-induced changes in myeloid inflammatory cell populations (CD11b+ white blood cells, neutrophils, monocytes, transitioning monocytes)” value [2] was “attenuated”, the “potency relative to (R)-LTP592” value [3] was 150 fold and the “inhibition of GCPII enzymatic activity in colon tissue” value (“inhibition” below) ([4]; 1 mg/kg eq. oral) was 40%. For the same molecule, the “inhibition” value ([4]; 10 mg/kg eq. oral) was over 75%, the “inhibition” value ([4]; 100 mg/kg eq. oral) was over 75% and the bleeding score ([1]; 4.0% DSS, 100 mg/kg eq. oral) was “improvements”. The stool score ([1]; 4.0% DSS, 100 mg/kg eq. oral) was “improvements”, the “colon histology (scored by a blinded pathologist)” value [1, 6] was “significantly improved” and the colon length [1, 6] was “normalization of colon length”. For the same molecule, the “number and depth of ulcerations and degree of inflammatory infiltration” value [1, 6] was “reduced”, the “efficacy in DSS colitis” value ([1]; 4.0% DSS, oral once daily, 1 mg/kg eq.) was “non-efficacious” and the “efficacy in DSS colitis” value ([1]; 4.0% DSS, oral once daily, 10 mg/kg eq.) was “effective”. For the same molecule, the “colitis severity (DAI)” value ([1]; 4.0% DSS, oral once daily, 100 mg/kg eq., as early as study day 3) was “significantly decreased”.

`C[C@H](CCNC(=O)CCC(CP(=O)(O)O)C(=O)O)[C@H]1CCC2C3C(CC[C@@]21C)[C@@]1(C)CC[C@@H](O)C[C@H]1C[C@@H]3O` (stereo partly drawn) [IS-101-020, 5-(((3R)-3-((3R,7S,10S,13R,17R)-3,7-Dihydroxy-10,13-dimethylhexadecahydro-1H-cyclopenta[a]phenanthren-17-yl)butyl)amino)-5-oxo-2-(phosphonomethyl)pentanoic acid] was tested, and the “anti-IBD activity: disease activity index (DAI)” value [1, 5] was “significant reductions in DAI”.

`C[C@H](CCNC(=O)CCC(CP(=O)(O)O)C(=O)O)[C@H]1CCC2C3CC[C@@H]4C[C@H](O)CC[C@]4(C)C3C[C@H](O)[C@@]21C` (stereo partly drawn) [IS-101-077, 5-(((3R)-3-((3R,10S,12S,13R,17R)-3,12-Dihydroxy-10,13-dimethylhexadecahydro-1H-cyclopenta[a]phenanthren-17-yl)butyl)amino)-5-oxo-2-(phosphonomethyl)pentanoic acid] was tested, and the “anti-IBD activity: disease activity index (DAI)” value [1, 5] was “significant reductions in DAI”.

For `CC(C)C[C@H](NC(=O)N[C@@H](CCC(=O)OCOC(=O)CC[C@@H](C)[C@H]1CCC2C3CC[C@@H]4C[C@H](O)CC[C@]4(C)C3C[C@H](O)[C@@]21C)C(=O)O)C(=O)O` (stereo partly drawn) [IS-102-138, (2S,6S,16R)-6-Carboxy-16-((3R,10S,12S,13R,17R)-3,12-dihydroxy-10,13-dimethylhexadecahydro-1H-cyclopenta[a]phenanthren-17-yl)-2-isobutyl-4,9,13-trioxo-10,12-dioxa-3,5-diazaheptadecanoic acid], the “anti-IBD activity: disease activity index (DAI)” value [1, 7] was “significant reductions in DAI”.

`C[C@H](CCC(=O)OCOC(=O)CCC(CP(=O)(O)O)C(=O)O)C1CCC2C3C(CC[C@@]21C)[C@@]1(C)CC[C@@H](O)C[C@H]1C[C@@H]3O` (stereo partly drawn) [LTP1054, 5-((((4R)-4-((3R,7S,12S,13R)-3,12-Dihydroxy-10,13-dimethylhexadecahydro-1H-cyclopenta[a]phenanthren-17-yl)pentanoyl)oxy)methoxy)-5-oxo-2-(phosphonomethyl) pentanoic acid] was tested, and the “anti-IBD activity: disease activity index (DAI)” value [1, 5] was “inactive”.

With `C[C@H](CCC(=O)OCOC(=O)c1ccc(CC(CCC(=O)NO)C(=O)O)cc1)C1CCC2C3CC[C@@H]4C[C@H](O)CC[C@]4(C)C3C[C@H](O)[C@@]21C` (some centres unmarked) [TT-220420] the “anti-IBD activity: disease activity index (DAI)” value [1, 7] was “significant reductions in DAI”.
